Values after ≈ are worked out from the molar mass of the structure shown.
How the values were obtained:
[1] = Cytotoxicity against human NHDF cells deficient of IRF3 assessed as reduction in cell viability incubated for 72 hrs by CellTiter Glo luminescence assay; assay type: toxicity, cell-based
[2] = test system: Chikungunya virus; test: Antiviral activity against Chikungunya virus infected in human NHDF cells assessed as inhibition of viral production by NanoLuc reporter assay; assay type: functional, organism-based
[3] = Kinetic solubility of the compound in simulated intestinal fluid at pH 7.5 by LC-MS analysis; assay type: physicochemical; details: read-out: Kinetic_solubility
[4] = Cytotoxicity against African green monkey VeroE6 cells assessed as reduction in cell viability incubated for 72 hrs by CellTiter Glo luminescence analysis; assay type: toxicity, cell-based, Vero C1008; details: chlorocebus sabaeus
[5] = Octanol/PBS buffer distribution coefficient, logD of the compound at pH 7.5 by LC-MS analysis; assay type: physicochemical
[6] = Cytotoxicity against human NHDF cells assessed as reduction in cell viability incubated for 24 hrs by CellTiter Glo luminescence assay; assay type: toxicity, cell-based
[7] = test system: Chikungunya virus; test: Antiviral activity against Chikungunya virus 181/25 infected in human NHDF cells assessed as log reduction of virus titer at 10 uM treated with cells at 1 hr prior to infection and measured at 24 hrs post-infection by plaque assay; assay type: functional; details: time 25 hrs
[8] = Half life of the compound in human liver microsomes in presence of NADPH by LC-MS/MS analysis; assay type: ADME, Microsome
[9] = test system: Chikungunya virus; test: Antiviral activity against Chikungunya virus 181/25 infected in human NHDF cells assessed as reduction of virus titer treated with cells at 1 hr prior to infection and measured at 24 hrs post-infection by plaque assay; assay type: functional, organism-based; details: 181/25, NHDF; for EC90: time 25 hrs
[10] = test system: Chikungunya virus; test: Antiviral activity against Chikungunya virus Sri Lanka strain infected in African green monkey Vero E6 cells assessed as inhibition of virus-induced cytopathic effect incubated for 72 hrs by CellTiter Glo luminescence assay; assay type: functional, organism-based; details: Vero C1008, 72 h
[11] = Half life of the compound in mouse liver microsomes in presence of NADPH by LC-MS/MS analysis; assay type: ADME, Microsome
[12] = test system: Venezuelan equine encephalitis virus; test: Antiviral activity against VEEV TC-83 infected in human NHDF cells assessed as reduction of virus titer treated with cells at 1 hr prior to infection and measured at 24 hrs post-infection by plaque assay; assay type: functional; details: TC-83, NHDF, time 25 hrs
[13] = test system: West Nile virus; test: Antiviral activity against West Nile virus NY99 infected in human HEK293 cells assessed as reduction of virus load measured at 3 days post-infection by focus-forming assay; assay type: functional; details: NY99, HEK293, 72 h, time 3 day
[14] = test system: Zika virus; test: Antiviral activity against Zika virus PRABC59 infected in human HEK293 cells assessed as log reduction of virus titer at 10 uM measured at 3 days post-infection by focus-forming assay; assay type: functional; details: time 3 day
[15] = test system: dengue virus type 2; test: Antiviral activity against Dengue virus 2 NGC infected in human HEK293 cells assessed as reduction of virus load measured at 3 days post-infection by focus-forming assay; assay type: functional; details: HEK293, 72 h, time 3 day
[16] = test system: dengue virus type 2; test: Antiviral activity against Dengue virus 2 NGC infected in human HEK293 cells assessed as log reduction of virus titer at 10 uM measured at 3 days post-infection by focus-forming assay; assay type: functional; details: time 3 day
[17] = test system: Zika virus; test: Antiviral activity against Zika virus PRABC59 infected in human HEK293 cells assessed as reduction of virus load measured at 3 days post-infection by focus-forming assay; assay type: functional; details: PRABC59, HEK293, 72 h, time 3 day
[18] = test system: Venezuelan equine encephalitis virus; test: Antiviral activity against VEEV TC-83 infected in human NHDF cells assessed as log reduction of virus titer at 10 uM treated with cells at 1 hr prior to infection and measured at 24 hrs post-infection by plaque assay; assay type: functional; details: time 25 hrs
[19] = test system: West Nile virus; test: Antiviral activity against West Nile virus NY99 infected in human HEK293 cells assessed as log reduction of virus titer at 10 uM measured at 3 days post-infection by focus-forming assay; assay type: functional; details: time 3 day
[20] = Cytotoxicity against human HEK293 cells; assay type: toxicity, cell-based

SMILES	CC50 at 72 h [1]	solubility kinetic [3]	logD [5]	log(activity) [7]	half-life [8]	EC90 [9]	half-life [11]	other results
CSc1ncccc1C(=O)Nc1nc(-c2ccc3ccccc3c2)cs1	> 40 µM	< 1 µM	4.8	6.9	35 min	0.93 µM	27 min	EC50 [2]: 1.06 µM; CC50 at 72 h [4]: 107 µM; CC50 at 24 h [6]: 132 µM; EC50 [9]: 4.7 µM; EC50 [10]: 4.5 µM
CSc1ncccc1C(=O)Nc1nc(-c2cccc(Nc3cccc(C#N)c3)c2)cs1	> 30 µM	< 1 µM	> 3.54	5.7	25 min	–	33 min	EC90 [12]: 0.6 µM; EC90 [13]: 1.1 µM; log(activity) [14]: 3.4; CC50 at 24 h [6]: > 30 µM; EC90 [15]: 0.5 µM; log(activity) [16]: 3.7; EC90 [17]: 0.4 µM; log(activity) [18]: 7.3; log(activity) [19]: 4.3; CC50 [20]: > 30 µM
CSc1ncccc1C(=O)Nc1nc(-c2cc(-c3ccc(C#N)cc3)ccc2F)cs1	> 30 µM	< 1 µM	2	5.8	85 min	–	69 min	–
CSc1ncccc1C(=O)Nc1nc(-c2cccc(-c3ccc(C#N)cn3)c2)cs1	> 30 µM	< 1 µM	> 3.97	6	25 min	–	34 min	–
CSc1ncccc1C(=O)Nc1nc(-c2cccc(-c3ccccn3)c2)cs1	> 30 µM	< 1 µM	> 3.83	4	15 min	0.7 µM	8 min	–
CSc1ncccc1C(=O)Nc1nc(-c2cc(F)cc(-c3ccc(C#N)cc3)c2)cs1	> 30 µM	< 1 µM	> 4.09	6.1	53 min	–	123 min	–
CSc1ncccc1C(=O)Nc1nc(-c2cccc(Nc3ccc(CN)cc3)c2)cs1	15.4 µM	33 µM (≈ 14.8 µg/mL)	2.2	1.2	37 min	9.8 µM	234 min	–
CSc1ncccc1C(=O)Nc1nc(-c2cccc(-c3ccccc3)c2)cs1	> 30 µM	< 1 µM	> 4.15	7.8	34 min	–	51 min	–
CSc1ncccc1C(=O)Nc1nc(-c2cccc(Nc3ccc(C#N)c(C(=O)O)c3)c2)cs1	> 40 µM	84 µM (≈ 41 µg/mL)	1.4	0.15	145 min	> 40 µM	72 min	–
CSc1ncccc1C(=O)Nc1nc(-c2cccc(N3CCNCC3)c2)cs1	> 30 µM	59 µM (≈ 24.3 µg/mL)	1.8	8.7	> 300 min	–	211 min	–
O=C(Nc1nc(-c2ccc3ccccc3c2)cs1)c1cc(F)c(O)c(F)c1	20 µM	< 1 µM	> 3.45	7.6	137 min	2.9 µM	36 min	–
CSc1ncccc1C(=O)Nc1nc(-c2cccc(Nc3ccc(C#N)cn3)c2)cs1	40 µM	< 1 µM	–	2.2	19 min	4.8 µM	17 min	–
CSc1ncccc1C(=O)Nc1nc(-c2cccc(-c3ccc(C#N)c(O)c3)c2)cs1	> 30 µM	3 µM (≈ 1.33 µg/mL)	> 3.91	8.5	43 min	–	49 min	–
CSc1ncccc1C(=O)Nc1nc(-c2cccc(-c3ccc(C#N)cc3)c2)cs1	> 30 µM	< 1 µM	> 4.66	4.7	39 min	–	57 min	–
CSc1ncccc1C(=O)Nc1nc(-c2cccc(Nc3ccc(C#N)c(O)c3)c2)cs1	15.9 µM	1 µM (≈ 0.46 µg/mL)	> 3.46	1.2	43 min	10.1 µM	35 min	–
CC(C)(C)c1ncc(C(=O)Nc2nc(-c3ccc4ccccc4c3)cs2)s1	> 30 µM	< 1 µM	> 3.03	7.5	51 min	3.5 µM	9 min	–
CSc1ncccc1C(=O)Nc1nc(-c2cc(Nc3ccc(C#N)cc3)cc(N3CCOCC3)c2)cs1	> 40 µM	< 1 µM	> 3.92	5.1	15 min	0.1 µM	64 min	EC90 [12]: 0.45 µM; EC90 [13]: 24 µM; log(activity) [14]: 1.7; CC50 at 24 h [6]: > 30 µM; EC90 [15]: 1.8 µM; log(activity) [16]: 1.9; EC90 [17]: 0.8 µM; log(activity) [18]: 3.81; CC50 [20]: > 30 µM
CC(C)(C#N)c1ccc(C(=O)Nc2nc(-c3ccc4ccccc4c3)cs2)cc1	> 30 µM	< 1 µM	> 3.85	2.6	98 min	1.5 µM	129 min	–
CSc1ncccc1C(=O)Nc1nc(-c2cc(C(=O)O)cc(-c3ccc(C#N)cc3)c2)cs1	> 40 µM	< 1 µM	1.9	0	> 300 min	–	> 300 min	–
COc1cc(Nc2cccc(-c3csc(NC(=O)c4cccnc4SC)n3)c2)ccc1C#N	> 30 µM	< 1 µM	> 4.33	5.1	25 min	–	34 min	EC90 [12]: 0.21 µM; EC90 [13]: 1.2 µM; log(activity) [14]: 3; CC50 at 24 h [6]: > 30 µM; EC90 [15]: 0.4 µM; log(activity) [16]: 3; EC90 [17]: 0.5 µM; log(activity) [18]: 2; log(activity) [19]: 2.9; CC50 [20]: > 30 µM
Cc1ncccc1C(=O)Nc1nc(-c2ccc3ccccc3c2)cs1	> 30 µM	3 µM (≈ 1.04 µg/mL)	> 4.27	1.9	26 min	3.2 µM	26 min	–
CSc1ncccc1C(=O)Nc1nc(-c2cccc(-c3cccc(C#N)c3)c2)cs1	> 30 µM	< 1 µM	3	5.3	21 min	0.1 µM	31 min	EC90 [12]: 0.35 µM; EC90 [13]: 1.5 µM; log(activity) [14]: 3.5; CC50 at 24 h [6]: > 30 µM; EC90 [15]: 0.3 µM; log(activity) [16]: 2.9; EC90 [17]: 0.3 µM; log(activity) [18]: 5.2; log(activity) [19]: 2.7; CC50 [20]: > 30 µM
CSc1ncccc1C(=O)Nc1nc(-c2ccc3ncccc3c2)cs1	18 µM	56 µM (≈ 21.2 µg/mL)	3.8	1.2	17 min	7.9 µM	13 min	–
CC(C)(C)c1ccc(C(=O)Nc2nc(-c3ccc4ccccc4c3)cs2)cc1	> 30 µM	< 1 µM	> 3.32	4.3	49 min	0.1 µM	8 min	–
CC(C)(C(=O)O)c1ccc(C(=O)Nc2nc(-c3ccc4ccccc4c3)cs2)cc1	> 30 µM	64 µM (≈ 26.7 µg/mL)	2.1	0	292 min	–	213 min	–
CCOC(=O)N1CCN(c2cc(-c3ccc(C#N)cc3)cc(-c3csc(NC(=O)c4cccnc4SC)n3)c2)CC1	> 40 µM	< 1 µM	> 3.99	8.1	21 min	0.02 µM	63 min	EC90 [12]: 0.02 µM; EC90 [13]: 0.15 µM; log(activity) [14]: 3.5; CC50 at 24 h [6]: > 30 µM; EC90 [15]: 0.3 µM; log(activity) [16]: 3.3; EC90 [17]: 0.15 µM; log(activity) [18]: 4.9; log(activity) [19]: 4; CC50 [20]: > 30 µM

— ChEMBL document CHEMBL6074675, “4-Substituted-2-Thiazole Amides as Viral Replication Inhibitors of Alphaviruses” (J Med Chem, 2024)
